Data from ChEMBL document CHEMBL1201862, “PubChem BioAssay data set” (2004).
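Values below derive from 48-hour exposures of cells grown in 96-well plates, with endpoints linearly interpolated between the two concentrations bracketing the appropriate inhibition level. Here, GI50 denotes the concentration required for 50% inhibition of growth.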 Activity calls are given as the source filed them. Cut-off read from the data, not from the text of the source: active = GI50 up to about 1.1 µM and inactive = higher.

Key:
Assay in all cases: growth of human tumour cells (NCI), 48 h
[1] = test system: HCC 2998
[2] = test system: OVCAR-4
[3] = test system: SR
[4] = test system: NCI-H522
[5] = test system: MOLT-4
[6] = test system: KM12
[7] = test system: ACHN
[8] = test system: 786-0
[9] = test system: NCI-H226
[10] = test system: TK-10
[11] = test system: SNB-75
[12] = test system: M14
[13] = test system: HCT-15
[14] = test system: PC-3
[15] = test system: A549
[16] = test system: HL-60
[17] = test system: NCI-H23
[18] = test system: K562
[19] = test system: COLO 205
[20] = test system: EKVX
[21] = test system: UO-31
[22] = test system: MDA-MB-435
[23] = test system: SF-295
[24] = test system: UACC-257
[25] = test system: OVCAR-8
[26] = test system: UACC-62
[27] = test system: RXF 393
[28] = test system: MCF7
[29] = test system: A498
[30] = test system: LOX IMVI
[31] = test system: BT-549
[32] = test system: IGROV-1
[33] = test system: SW-620
[34] = test system: T47D
[35] = test system: MDA-N
[36] = test system: HCT-116
[37] = test system: DU-145
[38] = test system: U-251
[39] = test system: NCI/ADR-RES
[40] = test system: SK-MEL-28
[41] = test system: SF-268
[42] = test system: Malme-3M
[43] = test system: RPMI-8226
[44] = test system: HOP-92
[45] = test system: OVCAR-5
[46] = test system: OVCAR-3
[47] = test system: SF-539
[48] = test system: SN12C
[49] = test system: CAKI-1
[50] = test system: Hs-578T
[51] = test system: MDA-MB-231
[52] = test system: NCI-H460
[53] = test system: SK-MEL-2
[54] = test system: HT-29
[55] = test system: HOP-62
[56] = test system: SK-MEL-5
[57] = test system: CCRF-CEM
[58] = test system: SNB-19
[59] = test system: SK-OV-3

Measured: GI50

COc1ccc(CC2CCc3nc(N)nc(N)c3C2)cc1OC (centres undefined)
inactive: [2] > 43.3 µM | [3] 3.7 µM | [6] 1.28 µM | [9] 12.1 µM | [10] 7.6 µM | [11] 1.46 µM | [16] 14.8 µM | [18] 18.3 µM | [19] 2.94 µM | [20] 2.01 µM | [21] 13.8 µM | [22] 1.41 µM | [24] 15.3 µM | [25] 14.6 µM | [28] 1.15 µM | [29] 17.3 µM | [33] 6.03 µM | [34] 18.9 µM | [38] 38.6 µM | [39] 1.29 µM | [40] 36.4 µM | [43] 13.1 µM | [44] 36 µM | [45] 1.51 µM | [46] 5.47 µM | [47] 2.25 µM | [48] 22.9 µM | [49] 2.29 µM | [50] > 56.1 µM | [51] 12.9 µM | [53] > 57.3 µM | [54] 1.79 µM | [55] 13.7 µM
0.104 µM: [13]
active: [1] 0.687 µM | [4] 0.489 µM | [5] 0.522 µM | [7] 0.16 µM | [8] 0.0551 µM | [12] 0.851 µM | [14] 0.0716 µM | [15] 0.0481 µM | [17] 0.564 µM | [23] 0.168 µM | [26] 0.0612 µM | [27] 0.0292 µM | [30] 0.065 µM | [31] 0.246 µM | [32] 0.11 µM | [35] 0.0507 µM | [36] 0.0349 µM | [37] 0.681 µM | [41] 0.173 µM | [42] 0.83 µM | [52] 0.0411 µM | [56] 0.4 µM

CCOC(=O)/C=C(/OCC)[C@@H]1C(C(=O)c2ccc(Cl)cc2)[C@@H]1/C(=C\C(=O)OCC)OCC (some centres undefined)
inactive: [2] 67.3 µM | [57] 5.69 µM | [3] 17.7 µM | [4] 3.62 µM | [5] 3.98 µM | [6] 6.87 µM | [7] 13.2 µM | [8] > 33.7 µM | [9] 6.27 µM | [10] 6.32 µM | [11] 7.5 µM | [12] 14.5 µM | [14] 5.89 µM | [15] 10.9 µM | [16] 3.12 µM | [17] 11.7 µM | [18] 2.62 µM | [19] 6.68 µM | [20] 14.5 µM | [21] 4.53 µM | [22] 6.58 µM | [23] 7.98 µM | [24] 6.75 µM | [25] 6.56 µM | [26] 28.8 µM | [27] 14.3 µM | [28] 11.2 µM | [29] 8.89 µM | [30] 24.3 µM | [31] 48.5 µM | [32] 56.5 µM | [58] 11.9 µM | [33] 12.6 µM | [34] 6.01 µM | [35] 17.5 µM | [36] 5.18 µM | [37] 47.1 µM | [38] 4.99 µM | [39] 3.6 µM | [40] 41.7 µM | [41] 45 µM | [42] 16.8 µM | [43] 2.79 µM | [44] 2.47 µM | [45] 30.6 µM | [46] 7.57 µM | [47] 22.1 µM | [48] 17.7 µM | [49] 16.9 µM | [50] 12.9 µM | [59] 27.2 µM | [51] 10.1 µM | [52] 18.6 µM | [53] 56.4 µM | [54] 7.53 µM | [55] 14.3 µM | [56] 4.41 µM
> 33 µM: [13]
